Reference: paper PMC2790023 (Journal of medicinal chemistry, 2009)
“Also recorded” adds a separate entry of the source.

Columns and labels:
HeLa cells [1] = experiment: AnnexinV/PI flow cytometry apoptosis assay; conditions: 20 μM, 24 h
CaSki cells = experiment: AnnexinV/PI flow cytometry apoptosis assay; conditions: 20 μM, 24 h
HeLa cells [2] = experiment: Cell numbers; format: cell-based; conditions: 20 μM, 24 h
VHR = VHR (Homo sapiens, UniProt P51452); experiment: Ki determination, Michaelis-Menten kinetics with pNPP; format: biochemical
[3] = test system: VHR, PTP1B, CD45, HePTP, Shp2, and YopH; format: biochemical

Chain of VHR (P51452 whole entry): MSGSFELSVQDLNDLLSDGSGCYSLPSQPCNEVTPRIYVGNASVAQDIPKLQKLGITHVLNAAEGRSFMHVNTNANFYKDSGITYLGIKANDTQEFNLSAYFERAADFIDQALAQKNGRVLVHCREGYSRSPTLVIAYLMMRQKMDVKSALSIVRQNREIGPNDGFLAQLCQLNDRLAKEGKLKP

Row | SMILES | Percentage of AnnexinV/PI negative cells versus vehicle (HeLa cells [1]) | Percentage of AnnexinV/PI negative cells versus vehicle (CaSki cells) | HeLa cell numbers, percentage of the DMSO control (HeLa cells [2]) | Inhibition pattern (Lineweaver-Burk plot) (VHR) | Ki (VHR; Ki, pNPP substrate) [µM] | Selectivity for VHR in counter screen [3]
1 | O=C1/C(=C/c2cn(-c3ccccc3)nc2-c2ccc(OCc3ccccc3Cl)cc2)SC(=S)N1CCS(=O)(=O)O [SA2] | no difference | no difference | – | – | – | –
2 | O=C1/C(=C/c2cn(-c3ccccc3)nc2-c2ccc(OCc3ccccc3F)cc2)SC(=S)N1CCS(=O)(=O)O [SA3] | no difference | no difference | less than 50% | – | – | –
3 | O=C1/C(=C/C=C/c2ccccc2)SC(=S)N1CCS(=O)(=O)O [compound 1, 2-((Z)-4-oxo-5-((E)-3-phenylallylidene)-2-thioxothiazolidin-3-yl)ethane-sulfonic acid] | – | – | – | competitively inhibited VHR; also recorded: clear competitive inhibition pattern | 0.809 | selectively inhibiting VHR; also recorded: selective for VHR
4 | COc1ccc(OC)c2c1C(=O)c1ccccc1C2=O [compound 8, 1,4-dimethoxyanthracene-9,10-dione] | – | – | – | – | – | selectively inhibiting VHR; also recorded: selective for VHR
